# Experimental data as given in the supplement of paper PMC8960247.
# ± gives the standard error.
# Columns and labels:
# [1] = test system: 621-103 (TSC2-rescued); assay: relative viability vs DMSO; higher = less cytotoxic; details: serum: 10% FBS, 72 h
# [2] = test system: 621-102 (TSC2-deficient); assay: as above; details: serum: 10% FBS, 72 h
# [3] = test system: UMB1949 (TSC2-deficient); assay: relative viability vs DMSO (fraction); higher = less cytotoxic; details: serum: 0.1% FBS, 72 h;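 further: renal angiomyolipoma cell lines screened in 384-well plates, viability normalized per plate to DMSO-treated cells, each plate carrying 50 nM rapamycin and 1 µM staurosporine controls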
# [4] = test system: 621-102 (TSC2-deficient); assay: as above; details: serum: 0.1% FBS, 72 h
SMILES,relative viability ([1]; 0.0001 µM),relative viability ([1]; 0.001 µM),relative viability ([1]; 0.01 µM),relative viability ([1]; 0.1 µM),relative viability ([1]; 1 µM),relative viability ([1]; 10 µM),relative viability ([2]; 0.0001 µM),relative viability ([2]; 0.001 µM),relative viability ([2]; 0.01 µM),relative viability ([2]; 0.1 µM),relative viability ([2]; 1 µM),relative viability ([2]; 10 µM),relative viability ([3]; 0.0128 nM),relative viability ([3]; 0.064 nM),relative viability ([3]; 0.32 nM),relative viability ([3]; 1.6 nM),relative viability ([3]; 8 nM),relative viability ([3]; 40 nM),relative viability ([3]; 200 nM),relative viability ([3]; 1000 nM),relative viability ([3]; 5000 nM),relative viability ([4]; 0.0128 nM),relative viability ([4]; 0.064 nM),relative viability ([4]; 0.32 nM),relative viability ([4]; 1.6 nM),relative viability ([4]; 8 nM),relative viability ([4]; 40 nM),relative viability ([4]; 200 nM),relative viability ([4]; 1000 nM),relative viability ([4]; 5000 nM)
CC(C)C[C@H](NC(=O)CNC(=O)c1cc(Cl)ccc1Cl)B(O)O [MLN2238],100.04 ± 0.065%,102.4 ± 0.21%,103 ± 0.3%,6.24 ± 0.3%,1.63 ± 0.11%,0.879 ± 0.059%,113.5 ± 0.41%,107.81 ± 0.071%,109 ± 2.2%,33.7 ± 7.2%,4.42 ± 0.32%,1.79 ± 0.047%,0.999,1.11,1.04,1.06,0.886,0.00829,0.00329,0.000634,0.000752,1.04,1.1,0.991,1.15,0.999,0.243,0.0069,0.000706,0.00111
CC(C)C[C@H](NC(=O)[C@H](Cc1ccccc1)NC(=O)c1cnccn1)B(O)O [Bortezomib],97.4 ± 1.6%,90 ± 4.2%,2.332 ± 0.012%,1.43 ± 0.049%,1.14 ± 0.0052%,1.03 ± 0.066%,110 ± 1.3%,102 ± 2.8%,5.8 ± 0.15%,3.06 ± 0.034%,2.21 ± 0.16%,1.87 ± 0.13%,1.02,0.99,1.02,0.62,0.0154,0.00739,0.0026,0.000806,0.000906,1.07,1.03,0.903,0.16,0.0107,0.00306,0.00178,0.000877,0.000659
Cc1cc(Nc2cc(N3CCN(C)CC3)nc(Sc3ccc(NC(=O)C4CC4)cc3)n2)n[nH]1 [VX-680 (MK-0457)],99.1 ± 1.1%,103 ± 1.9%,100 ± 1.9%,94.8 ± 6.2%,78.2 ± 2%,20.4 ± 0.69%,101 ± 4.7%,90.4 ± 2.4%,98.8 ± 1.7%,81.4 ± 0.96%,76 ± 2.1%,47.8 ± 0.98%,0.947,0.818,0.872,0.0803,0.0315,0.0297,0.0316,0.0244,0.0016,1.08,1,0.776,0.176,0.0382,0.0452,0.0422,0.0108,0.00299
Cn1cc(-c2ccc3nnc(Sc4ccc5ncccc5c4)n3n2)cn1 [SGX-523],102 ± 1.5%,96.42 ± 0.71%,105 ± 2.4%,102.4 ± 0.49%,102.2 ± 0.92%,97.9 ± 1.9%,104 ± 1.6%,94.8 ± 6.4%,103 ± 2.1%,98.3 ± 4.6%,103.8 ± 0.28%,97.5 ± 4.1%,1.09,1.05,1.17,1.23,1.03,1.11,1.19,1.04,0.718,1.13,1.07,0.971,1.13,1.06,0.984,1.01,0.991,0.776
